Experimental data published in patent publication US7838468B2, “High molecular weight polyamine salts as clay stabilizing agents” (Baker Hughes Incorporated, priority 2003, dated 2010).

Assay: permeability of Bandera sandstone (clay stabilization)
Details: API standard brine and tap water, 150° F. (66° C.)
Procedure: FIG. 1 is a graph of the effect of TMAC and Tap Water on the permeability of Bandera Sandstone at 150° F. (66° C.);
FIG. 2 is a graph of the effect of A4819 and Tap Water on the permeability of Bandera Sandstone at 150° F. (66° C.); and
FIG. 3 is a graph of the effect of A4840 and Tap Water on the permeability of Bandera Sandstone at 150° F. (66° C.).
The products TMAC (tetramethylammonium chloride), A4819 and A4840 were tested on an API standard brine and tap water on Bandera sandstone for permeability.

C[N+](C)(C)C.[Cl-] [TMAC, tetramethylammonium chloride]
maintaining permeability (measure that the clay is stable): performed well
